Patent US20160296438A1, “PROTECTIVE ACTION OF LUTEIN AGAINST BLUE LIGHT ON HUMAN SKIN CELL LINES” (Kemin Industries, Inc., priority 2015, published 2016)
Entries after “also recorded” stand apart in the source; their conditions may differ.

Key:
[1] = system: human dermal fibroblasts (HDF) cells; test: Blue light shielding study with lutein, cell viability/proliferation by MTS assay; format: cell-based; conditions: lutein solution in DMSO at 50, 100 and 200 ppm as shield plate on top, blue LED 476 nm, 9 hours, p<0.05, FIG. 3
Method: (§1) Cell culture studies. All the cell culture studies were performed using HEK cells [HEK001 (ATCC® CRL-2404™) lot #61331463] continuous cell lines and Human Skin Fibroblast (HDF) [CCD1093Sk (ATCC® CRL2115™) lot #3296816] cell lines [ATCC, Manassas, Va.].
(§2) The growth medium used for HEK cells was prepared according to ATCC guidelines. Growth media consisting of keratinocyte serum free medium (GIBCO-BRL 17005042, lot #1638561) with 5 ng/mL human recombinant epidermal growth factor (EGF) (ATCC, lot # 1584416) and 2 mM L-glutamine (ATCC, lot #62195752) (without bovine pituitary extract and serum) and supplemented with penicillin (10000 units) and streptomycin (10 mg/mL) solution (Gibco, lot #1469707). The growth medium used for HDF cells consisting of eagle's Minimum Essential Medium (EMEM) (ATCC-302003, lot #62028896) with 10% FBS and supplemented with penicillin (10000 units) and streptomycin (10 mg/mL) solution. Cells were grown in cell culture flasks (75 cm^2) [Fisher Scientific, catalog number 10-126-37] to approximately 80% confluence in 5% CO2 environment incubator (NuAire, MN) maintained at 37° C. Confluent cells were passed into subsequent cultures by trypsinization following neutralization and centrifugation. […]
(§3) MTS assay. […] After incubation the absorbance at 490 nm was recorded using microplate Reader (SpectraMax® Me5, Molecular Devices, LLC. Sunnyvale, Calif.). […]

[2] = system: human epidermal keratinocytes (HEK) cells; test: as above; format: cell-based; conditions: lutein solution in DMSO at 50, 100 and 200 ppm as shield plate on top, blue LED 476 nm, 9 hours, p<0.05, FIG. 2
Method: as §1, §2, §3

[3] = system: human dermal fibroblasts (HDF) cells; test: Intracellular reactive oxygen species (ROS) assay (DCFH-DA) under blue light; format: cell-based; conditions: lutein at 50, 100 and 200 ppm, blue LED 476 nm, 9 hours, FIG. 6
Method: (§4) Reactive Oxygen Species (ROS) assay. ROS activity was measured using Oxiselect™ intracellular ROS assay kit (Cell BioLabs, San Diego, Calif., catalogue number STA 342, lot #59342025). The cells were seeded into 96-well microplates at a density of 100,000 cells/mL (200 μL). Both the cell lines were treated with cell permeable fluorogenic probe 2′, 7′-dichlorodihydrofluorescin diacetate (DCFH-DA). Cells were washed with D-PBS for couple of times and treated with lutein at different concentrations and exposed to blue LED lights (476 nm) for 9 hours (Cells that were not treated with lutein will serve as blue light control). Cells treated with pure DMSO serves as a control for DMSO effect in presence and absence of blue light. […] After 5 minutes incubation, 150 μL of this medium was transferred to a black wall 96-well plate and fluorescence was measured. […] Intracellular reactive oxygen species (ROS) activity and the oxidative stress was measured using Oxiselect™ intracellular ROS assay kit which can measure hydroxyl, peroxyl and other free radical in the cells. […] DCFH will be rapidly oxidized to fluorescent […] (DCF-green fluorescence) in presence of reactive oxygen species. The fluorescence intensity is proportional to the ROS levels within the cell cytosol. […]

[4] = system: human epidermal keratinocytes (HEK) cells; test: as above; format: cell-based; conditions: lutein at 50, 100 and 200 ppm, blue LED 476 nm, 9 hours, FIG. 5
Method: as §4

[5] = Solubility of lutein in cell culture media and DMSO; format: physicochemical
Method: FloraGLO™ Lutein (production number M080033, lot number 1405102477, manufactured date Jun. 04, 2014) was solubilized in sterile dimethyl sulfoxide (DMSO) [ATCC, lot #61908420] with intermittent shaking for at least 6 hours to get a stock of 2 mg/mL solution. From the stock; 2.5, 5 and 10 μl of the lutein solution was added to wells containing 100 μl media to get a final lutein concentration of 50, 100 and 200 ppm in corresponding wells. Hydrogen peroxide (H2O2) [Sigma, lot #WKBS8306V] solution at 1 mM was served as a positive control in all the studies. Pure DMSO at 2.5, 5 and 10 μl was added to few wells to have the DMSO control.
FloraGLO™ Lutein was solubilized in DMSO and applied to cell cultures. […] In our earlier attempts for cell viability assays with various detection mechanisms, this high concentrations of DMSO might be interacting with cell culture membranes and causing a reduction in cell proliferation and decrease in cell viability compared to controls.

- solubility in DMSO ([5]; DMSO): limited solubility
- solubility in cell culture compatible media ([5]; cell culture compatible media): does not dissolve
Compound: CC1=C[C@H](O)CC(C)(C)[C@H]1/C=C/C(C)=C/C=C/C(C)=C/C=C/C=C(C)/C=C/C=C(C)/C=C/C1=C(C)C[C@@H](O)CC1(C)C [lutein]
- cell proliferation (% cell viability) compared to blue light control [1]: significantly improved; also recorded: shielded the blue light effectively
- cell proliferation (% cell viability) compared to blue light control [2]: significantly improved; also recorded: shielded the blue light effectively
- fluorescence signal (DCF, generation of ROS) on blue light exposure [3]: low and prevent the generation of reactive oxygen species
- fluorescence signal (DCF, generation of ROS) on blue light exposure [4]: low and prevent the generation of reactive oxygen species
